Data from patent publication US20090227647A1, “Compounds, Compositions and Methods for the Treatment of Islet Amyloid Polypeptide (IAPP) Accumulation in Diabetes” (priority 2008, published 2009).

Columns and labels:
Amylin/IAPP fibrils = biological target: T1, Amylin/IAPP fibrils (Homo sapiens, UniProt P10997); test: Congo red binding assay, Amylin/IAPP fibrils; type: biochemical; settings: 3-day incubation
T1 sequence (P10997 34-70 limits assumed): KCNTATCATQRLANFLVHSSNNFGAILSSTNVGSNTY
Protocol: In the Congo red binding assay the ability of a given test compound to alter amyloid binding to Congo red was quantified. In this assay, IAPP fibrils and test compounds were incubated for 3 days and then vacuum filtered through a 0.2 μm filter. The amount of IAPP fibrils retained in the filter was then quantitated following staining of the filter with Congo red. After appropriate washing of the filter, any lowering of the Congo red color on the filter in the presence of the test compound (compared to the Congo red staining of the amyloid protein in the absence of the test compound) was indicative of the test compound's ability to diminish/alter the amount of aggregated and congophilic IAPP fibrils.
In the Congo red binding assay the ability of a test compound to alter Amylin/IAPP binding to Congo red is quantified. In this assay, Amylin/IAPP and test compounds were incubated for 3 days and then vacuum filtered through a 0.2 μm filter. The amount of Amylin/IAPP retained in the filter was then quantitated following staining of the filter with Congo red. After appropriate washing of the filter, any lowering of the Congo red color retained on the filter in the presence of the test compound (compared to the Congo red staining of the Amylin/IAPP protein in the absence of the test compound) was indicative of the test compound's ability to diminish/alter the amount of aggregated and/or congophilic Amylin/IAPP.

[1] = biological target: T2, pre-fibrillized Amylin/IAPP fibrils (Homo sapiens, UniProt P10997); test: Thioflavin T fluorometry, disruption/disassembly of pre-formed Amylin/IAPP fibrils; type: biochemical; settings: for % Inhibition Amylin/IAPP (result ± S.D.), Thioflavin T fluorometry: 3-day incubation at 37° C.; for disruption/disassembly of preformed Amylin/IAPP fibrils (result in words), Thioflavin T fluorometry: all concentrations tested (wt/wt ratios 1:1 to 1:0.001)
T2 construct: purchased Bachem Inc
T2 sequence (P10997 34-70 limits assumed): T1 sequence (P10997 34-70 limits assumed)
Protocol: The biological activity of the compounds provided herein as disruptors/inhibitors of IAPP amyloid protein fibrils, was assessed by determining the efficacy of the compounds to cause a disassembly/disruption of pre-formed IAPP amyloid fibrils. […] In this assay Thioflavin T binds specifically to fibrillar amyloid, and this binding produces a fluorescence enhancement at 485 nm that is directly proportional to the amount of fibrils present. The higher the fluorescence, the greater the amount of fibrils present (Naki et al, Lab. Invest. 65:104-110, 1991; Levine III, Protein Sci. 2:404-410, 1993; Amyloid: Int. J. Exp. Clin. Invest. 2:1-6, 1995).
In this assay Thioflavin T binds specifically to fibrillar amyloid, and this binding produces a fluorescence enhancement at 485 nm that is directly proportional to the amount of amyloid fibrils formed. The higher the fluorescence, the greater the amount of amyloid fibrils formed (Naki et al., Lab. Invest. 65:104-110, 1991; Levine III, Protein Sci. 2:404-410, 1993; Amyloid: Int. J. Exp. Clin. Invest. 2:1-6, 1995). The same premise is applied to Amylin/IAPP fibrils.
Following 3-days of co-incubation, 50 μl of each incubation mixture was transferred into a 96-well microtiter plate containing 150 μl of distilled water and 50 μl of a Thioflavin T solution (i.e. 500 mM Thioflavin T in 250 mM phosphate buffer, pH 6.8). The fluorescence was read at 485 nm (444 nm excitation wavelength) using an ELISA plate fluorometer after subtraction with buffer alone or compound alone, as blank.

[2] = Amylin/IAPP:test compound wt/wt ratio 1:0.001
[3] = Amylin/IAPP:test compound wt/wt ratio 1:0.01
[4] = Amylin/IAPP:test compound wt/wt ratio 1:0.1
[5] = Amylin/IAPP:test compound wt/wt ratio 1:1

SMILES	% Inhibition Amylin/IAPP (result ± S.D.), Congo red binding (Amylin/IAPP fibrils; [2])	% Inhibition Amylin/IAPP (result ± S.D.), Congo red binding (Amylin/IAPP fibrils; [3])	% Inhibition Amylin/IAPP (result ± S.D.), Congo red binding (Amylin/IAPP fibrils; [4])	% Inhibition Amylin/IAPP (result ± S.D.), Congo red binding (Amylin/IAPP fibrils; [5])	% Inhibition Amylin/IAPP (result ± S.D.), Thioflavin T fluorometry [1, 2]	% Inhibition Amylin/IAPP (result ± S.D.), Thioflavin T fluorometry [1, 3]	% Inhibition Amylin/IAPP (result ± S.D.), Thioflavin T fluorometry [1, 4]	% Inhibition Amylin/IAPP (result ± S.D.), Thioflavin T fluorometry [1, 5]	disruption/disassembly of preformed Amylin/IAPP fibrils (result in words), Thioflavin T fluorometry [1]
Oc1ccc(-c2cnc(-c3ccc(O)c(O)c3)[nH]2)cc1O [Compound 6, 2,4 bis(3,4 dihydroxyphenyl) Imidazole]	5.2 ± 2.31%	1.0 ± 4.82%	36.4 ± 12.77%	80.7 ± 0.75%	17.2 ± 4.22%	68.9±3.33%	96.3±0.76%	100.0 ± 0.26%	most efficacious
Oc1ccc(-c2nnc(-c3ccc(O)c(O)c3)[nH]2)cc1O [Compound 7, 3,5 bis(3,4 Dihydroxyphenyl) 1,2,4 Triazole]	9.1 ± 1.29%	–	44.1 ± 5.62%	66.2±7.81%	4.6 ± 4.34%	41.4 ± 2.13%	89.7 ± 0.54%	99.8 ± 0.31%	–
Oc1ccc(C23CC4CC(C2)CC(c2ccc(O)c(O)c2)(C4)C3)cc1O [Compound 9, 1,3 bis(3,4 dihydroxyphenyl) Adamantane]	16.5 ± 9.88%	12.0 ± 8.03%	41.2 ± 5.64%	88.6 ± 2.08%	4.3 ± 2.29%	36.6 ± 3.55%	88.5 ± 0.31%	97.6 ± 0.31%	–
Oc1ccc(-c2cc(-c3ccc(O)c(O)c3)[nH]n2)cc1O [Compound 8, 3,5 bis(3,4 Dihydroxyphenyl)Pyrazole]	1.7 ± 1.98%	20.2 ± 7.11%	39.7 ± 7.20%	74.9 ± 1.26%	8.1 ± 1.54%	48.4 ± 0.31%	91.2 ± 0.76%	99.0 ± 1.05%	–
O=C(Nc1cccc(O)c1O)c1ccc(O)c(O)c1 [Compound 2, 3,4 dihydroxybenzoic Acid 2,3 Dihydroxyanilide]	5.3 ± 6.75%	5.2 ± 0.23%	33.5 ± 6.38%	45.8 ± 1.62%	5.1 ± 4.57%	52.9 ± 4.36%	92.6 ± 0.84%	99.4 ± 1.69%	–
O=C(Nc1ccc(O)c(O)c1)c1cccc(O)c1O [Compound 1, 2,3 dihydroxybenzoic Acid 3,4 Dihydroxyanilide]	0.0 ± 6.44%	7.8 ± 6.13%	35.7 ± 5.12%	58.1 ± 6.67%	14.3 ± 3.56%	60.9±0.61%	95.1±0.48%	98.5 ± 0.26%	most efficacious
O=S(=O)(Nc1ccc(O)c(O)c1)c1ccc(O)c(O)c1 [Compound 5, 3,4 Dihydroxybenzenesulfonic acid 3,4 Dihydroxysulfonamide]	3.5 ± 2.40%	8.3 ± 6.91%	43.4 ± 3.39%	54.6 ± 14.22%	14.1 ± 1.62%	56.7±0.4%	93.7±1.13%	99.7 ± 0.38%	most efficacious
O=C(Nc1cccc(O)c1O)c1cccc(O)c1O [Compound 3, 2,3 dihydroxybenzoic Acid 2,3 Dihydroxyanilide]	7.1 ± 4.14%	3.6 ± 1.16%	26.0 ± 5.79%	60.1 ± 3.78%	5.0 ± 6.78%	51.7±3.56%	94.5±0.91%	99.3 ± 0.6%	most efficacious
CN(C(=O)c1ccc(O)c(O)c1)c1ccc(O)c(O)c1 [Compound 4, 3,4 Dihydroxybenzoic Acid 3,4 Dihydroxy N-methyl Anilide]	0.0 ± 7.35%	8.0 ± 4.62%	46.0±7.43%	70.8±1.55%	9.8 ± 7.47%	57.4±1.61%	95.4±0.23%	100.0 ± 0.09%	most efficacious
